The conditions of assay [1]: five-year study; cited from earlier work.
The test system of assay [2] is people with lung diseases, especially COPD. The assay can be described thus: mortality from respiratory disease in people with lung diseases regularly self-administering tiotropium through the HANDIHALER inhalation device. The assay is classed as in vivo. Particulars: regular self-administration by inhalation via HANDIHALER; compared with a population with similar characteristics not treated with tiotropium. The source says: This is evidence by the number of people with lung diseases, especially COPD, who die from respiratory disease in a given prolonged period of time when regularly self-administering tiotropium through the HANDIHALER® inhalation device; the comparison being a population with similar characteristics not treated with tiotropium.

The source of these data is patent US20040102469A1, “Method for reducing the mortality rate” (Boehringer Ingelheim Pharma GmbH & Co. KG, priority 2002, published 2004).

`CC(C)[N+]1(C)[C@@H]2CC[C@H]1CC(OC(=O)C(CO)c1ccccc1)C2.[Br-]` (some centres unmarked) [ipratropium bromide]: the influence on mortality result in assay [1] is recorded as “did not show any influence on mortality”.

With `C[N+]1(C)C2C[C@H](OC(=O)C(O)(c3cccs3)c3cccs3)CC1[C@H]1OC21` (stereo partly drawn) [tiotropium, (1α,2β,4β,5α,7β)-7-[(hydroxydi-2-thienylacetyl)oxy]-9,9-dimethyl-3-oxa-9-azoniatricyclo[3.3.1.0^2,4]nonane bromide], in assay [2], the “reduction of the mortality rate (number of people who die from respiratory disease in a given prolonged period of time)” value is “suitable in the reduction of the mortality rate”.
